According to PubChem BioAssay AID2060882 (Molecular Pharmacology Branch, DTP, NCI, 2025):
pIC50: −log10 of the molar value. Where “and” joins values, the source holds several entries; their conditions need not be identical. Equal entries are not always repeated.

Test system: 898857-211-R-J1-PDC complex spheroids, growth % test/control
Experiment: Anticancer human tumor 898857-211-R-J1-PDC patient-derived melanoma cell line growth inhibition [RAS]
Details: for viability, T/C: stronger effect = lower value
In short: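 Multi-cell-type spheroids: tumor cells plus HUVEC endothelial cells and mesenchymal stem cells. RAS-pathway inhibitors were combined with targeted agents, each dosed in half-log steps down from clinical Cmax, or from 10 microM when Cmax was unknown.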
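Also: spheroids exposed to compound for seven days before readout.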
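For viability, T/C in this document: 100% = DMSO vehicle control wells.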

Structure (SMILES): Cc1nc(N2CCC3(CC2)COC(C)C3N)c(CO)nc1Sc1ccnc(N)c1Cl (stereo unspecified) + CCn1c(-c2cccnc2C(C)OC)c2c3cc(ccc31)N1CCOC(CC(NC(=O)C(C(C)C)N(C)C(=O)C3(F)CCN(C(=O)C#CC(C)(C)N(C)C)CC3)C(=O)N3CCCC(N3)C(=O)OCC(C)(C)C2)C1
- pIC50 (curve of first compound, second compound 0.000949 µM): < 5.00
- pIC50 (curve of first compound, second compound 0.003 µM): < 5.00
- pIC50 (curve of first compound, second compound 0.00949 µM): < 5.00
- pIC50 (curve of first compound, second compound 0.03 µM): < 5.00
- pIC50 (curve of first compound, second compound 0.0949 µM): < 5.00
- pIC50 (curve of first compound, second compound 0.3 µM): < 5.00
- viability, T/C (second compound 0.000949 µM, first compound 0.0316 µM): 94.5%
- viability, T/C (second compound 0.000949 µM, first compound 0.1 µM): 94.9%
- viability, T/C (second compound 0.000949 µM, first compound 0.316 µM): 103%
- viability, T/C (second compound 0.000949 µM, first compound 1 µM): 98.8%
- viability, T/C (second compound 0.000949 µM, first compound 3.16 µM): 93.1%
- viability, T/C (second compound 0.000949 µM, first compound 10 µM): 90.6%
- viability, T/C (second compound 0.003 µM, first compound 0.0316 µM): 98.6%
- viability, T/C (second compound 0.003 µM, first compound 0.1 µM): 98.5%
- viability, T/C (second compound 0.003 µM, first compound 0.316 µM): 97.6%
- viability, T/C (second compound 0.003 µM, first compound 1 µM): 95.7%
- viability, T/C (second compound 0.003 µM, first compound 3.16 µM): 113%
- viability, T/C (second compound 0.003 µM, first compound 10 µM): 93.4%
- viability, T/C (second compound 0.00949 µM, first compound 0.0316 µM): 99.7%
- viability, T/C (second compound 0.00949 µM, first compound 0.1 µM): 104%
- viability, T/C (second compound 0.00949 µM, first compound 0.316 µM): 107%
- viability, T/C (second compound 0.00949 µM, first compound 1 µM): 96%
- viability, T/C (second compound 0.00949 µM, first compound 3.16 µM): 92.3%
- viability, T/C (second compound 0.00949 µM, first compound 10 µM): 85.1%
- viability, T/C (second compound 0.03 µM, first compound 0.0316 µM): 93.2%
- viability, T/C (second compound 0.03 µM, first compound 0.1 µM): 90.2%
- viability, T/C (second compound 0.03 µM, first compound 0.316 µM): 96.8%
- viability, T/C (second compound 0.03 µM, first compound 1 µM): 109%
- viability, T/C (second compound 0.03 µM, first compound 3.16 µM): 89.5%
- viability, T/C (second compound 0.03 µM, first compound 10 µM): 92%
- viability, T/C (second compound 0.0949 µM, first compound 0.0316 µM): 90.6%
- viability, T/C (second compound 0.0949 µM, first compound 0.1 µM): 100%
- viability, T/C (second compound 0.0949 µM, first compound 0.316 µM): 87.7%
- viability, T/C (second compound 0.0949 µM, first compound 1 µM): 96.3%
- viability, T/C (second compound 0.0949 µM, first compound 3.16 µM): 92%
- viability, T/C (second compound 0.0949 µM, first compound 10 µM): 88.6%
- viability, T/C (second compound 0.3 µM, first compound 0.0316 µM): 85.2%
- viability, T/C (second compound 0.3 µM, first compound 0.1 µM): 82.7%
- viability, T/C (second compound 0.3 µM, first compound 0.316 µM): 77.4%
- viability, T/C (second compound 0.3 µM, first compound 1 µM): 76.9%
- viability, T/C (second compound 0.3 µM, first compound 3.16 µM): 74.2%
- viability, T/C (second compound 0.3 µM, first compound 10 µM): 69.5%

Structure (SMILES): C[C@@H](NC(=O)c1ncnc(N)c1Cl)c1ncc(C(=O)Nc2cc(C(F)(F)F)c(Cl)cn2)s1 + C=CC(=O)N1CCN(c2nc(OCC3CCCN3C)nc3c(F)c(-c4nc(N)cc(C)c4C(F)(F)F)c(Cl)cc23)C(C)C1
- pIC50 (curve of first compound, second compound 0.00316 µM): 5.23
- pIC50 (curve of first compound, second compound 0.01 µM): 5.27
- pIC50 (curve of first compound, second compound 0.0316 µM): 5.24
- pIC50 (curve of first compound, second compound 0.1 µM): 5.27
- pIC50 (curve of first compound, second compound 0.316 µM): 5.18
- pIC50 (curve of first compound, second compound 1 µM): 5.29
- viability, T/C (second compound 0.00316 µM, first compound 0.0316 µM): 127%
- viability, T/C (second compound 0.00316 µM, first compound 0.1 µM): 120%
- viability, T/C (second compound 0.00316 µM, first compound 0.316 µM): 111%
- viability, T/C (second compound 0.00316 µM, first compound 1 µM): 80.8%
- viability, T/C (second compound 0.00316 µM, first compound 3.16 µM): 63.6%
- viability, T/C (second compound 0.00316 µM, first compound 10 µM): 40%
- viability, T/C (second compound 0.01 µM, first compound 0.0316 µM): 124%
- viability, T/C (second compound 0.01 µM, first compound 0.1 µM): 116%
- viability, T/C (second compound 0.01 µM, first compound 0.316 µM): 103%
- viability, T/C (second compound 0.01 µM, first compound 1 µM): 90.9%
- viability, T/C (second compound 0.01 µM, first compound 3.16 µM): 68.5%
- viability, T/C (second compound 0.01 µM, first compound 10 µM): 27.7%
- viability, T/C (second compound 0.0316 µM, first compound 0.0316 µM): 130%
- viability, T/C (second compound 0.0316 µM, first compound 0.1 µM): 123%
- viability, T/C (second compound 0.0316 µM, first compound 0.316 µM): 112%
- viability, T/C (second compound 0.0316 µM, first compound 1 µM): 89.3%
- viability, T/C (second compound 0.0316 µM, first compound 3.16 µM): 71.2%
- viability, T/C (second compound 0.0316 µM, first compound 10 µM): 32.6%
- viability, T/C (second compound 0.1 µM, first compound 0.0316 µM): 124%
- viability, T/C (second compound 0.1 µM, first compound 0.1 µM): 110%
- viability, T/C (second compound 0.1 µM, first compound 0.316 µM): 118%
- viability, T/C (second compound 0.1 µM, first compound 1 µM): 92.1%
- viability, T/C (second compound 0.1 µM, first compound 3.16 µM): 61.7%
- viability, T/C (second compound 0.1 µM, first compound 10 µM): 36.8%
- viability, T/C (second compound 0.316 µM, first compound 0.0316 µM): 123%
- viability, T/C (second compound 0.316 µM, first compound 0.1 µM): 135%
- viability, T/C (second compound 0.316 µM, first compound 0.316 µM): 114%
- viability, T/C (second compound 0.316 µM, first compound 1 µM): 96.3%
- viability, T/C (second compound 0.316 µM, first compound 3.16 µM): 70.8%
- viability, T/C (second compound 0.316 µM, first compound 10 µM): 39.1%
- viability, T/C (second compound 1 µM, first compound 0.0316 µM): 132%
- viability, T/C (second compound 1 µM, first compound 0.1 µM): 136%
- viability, T/C (second compound 1 µM, first compound 0.316 µM): 111%
- viability, T/C (second compound 1 µM, first compound 1 µM): 98.5%
- viability, T/C (second compound 1 µM, first compound 3.16 µM): 57.5%
- viability, T/C (second compound 1 µM, first compound 10 µM): 36.7%

Structure (SMILES): C=CC(=O)Nc1cc(Nc2nccc(-c3cn(C)c4ccccc34)n2)c(OC)cc1N(C)CCN(C)C
- viability, T/C (compound 0.00316 µM): 113% and 103% (2×) and 128%
- viability, T/C (compound 0.01 µM): 99.8% [middle of 4 runs]
- viability, T/C (compound 0.0316 µM): 114% [middle of 4 runs]
- viability, T/C (compound 0.1 µM): 102% [middle of 4 runs]
- viability, T/C (compound 0.316 µM): 92.8% [middle of 4 runs]
- viability, T/C (compound 1 µM): 54.5% [middle of 4 runs]
- pIC50 (curve of compound): 6.01 and < 6.00 and 6.10
